According to patent US11000491B2, “Amino-aryl-benzamide compounds and methods of use thereof” (HEPANOVA, INC., priority 2017, dated 2021):
Entries after “also recorded” stand apart in the source; their conditions may differ. Where two headings read alike, the source gives them in different places.

Assays:
Huh7 cells = test: Lipid droplet (LD) formation in Huh7 cells, BODIPY 493/503 staining, confocal microscopy; assay type: cell-based; conditions: Homo sapiens, Huh-7, 24 h
Experimental: FIGS. 5A-5D. Effect of HPN-01 on hepatocellular lipid droplet (LD) biogenesis. Heptoma cell line Huh7 cells were treated with various amounts of HPN-01 for 24 hours, either in the absence or in the presence of 400 μM oleic acid, which triggers LD formation, after which intracellular LD contents were observed using a Zeiss confocal microscope with fluorescence. FIG. 5A) Fluorescent analysis of untreated (DMSO) or HPN-01-treated cells in the absence (Top panels) and presence (Bottom panels) of oleic acid. Cellular LD contents were stained using BODIPY 493/503 and are shown in green. Blue indicates cell nuclei. FIG. 5B) LD size of treated and untreated (DMSO) cells, in the presence or absence of oleic acid. FIG. 5C) Mean fluorescence intensity of untreated (DMSO) and treated cells in the absence of oleic acid. FIG. 5D) Mean fluorescence intensity of untreated (DMSO) and treated cells in the presence of oleic acid.
Heptoma cell line Huh7 cells were treated with various amounts of HPN-01 for 24 h, either in the absence or in the presence of 400 μM oleic acid, and observed under a Zeiss confocal microscope. […] LD contents (stained with BODIPY 493/503, in green) were observed under a Zeiss confocal microscope. FIG. 5A. Blue indicates cell nuclei. FIG. 5B. LD size. FIG. 5C. Mean fluorescence intensity. Values were measured using ZEN software by counting 300 cells under each treatment condition.

adiponectin = test: Secreted adiponectin in differentiated 3T3-L1 cells by ELISA; assay type: cell-based; conditions: differentiated mouse 3T3-L1 cells
Experimental: Differentiated, mouse 3T3-L1 cells were treated with varying concentrations of HPN-01, and the level of secreted adiponectin measured by ELISA.

DGAT2 = test: Lipogenic gene mRNA by real-time qPCR in Huh7 cells; assay type: cell-based; conditions: 1 μM, 24 h
Text: (§1) FIG. 8. Inhibition of various lipogenic gene mRNA levels following treatment with HPN-01. […] Sterol regulatory element-binding protein-1 (SREBP-1); Sterol regulatory element-binding protein-2 (SREBP-2); Fatty acid synthase (FASN); Stearoyl-CoA-desaturase (SCD1); Acetyl-CoA carboxylase (ACC); Elongation of very long chain fatty acids fatty acid elongase 6 (ELOVL6); Low density liporeceptor (LDLR); Fatty acid desaturase 1 (FADS1); Diacylglycerol 0-Acyltransferase 1 (DGAT1); Diacylglycerol 0-Acyltransferase 2 (DGAT2).
(§2) Huh7 cells were treated with 1 μM of HPN-01 for 24 h, and the mRNA expression levels of various pivotal lipogenic enzymes were quantified by real-time qPCR. […] Folds of inhibition were as follows: SREBP-1: 2.98±0.23; SREBP-2: 4.01±0.31; FASN: 3.87±0.23; SCD1: 4.63±0.48; ACC: 4.12±0.34; ELOVL6: 2.84±0.22; LDLR: 3.02±0.11; FADS1: 3.06±0.17; DGAT1: 1.72±0.27; DGAT2: 3.77±0.45.

LDLR = test: as above; assay type: cell-based; conditions: 1 μM, 24 h
Text: as §1, §2

SREBP-1 = SREBP-1 expression in cultured primary human hepatocytes; assay type: cell-based; conditions: Hepatocyte
How it was run: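 Primary human hepatocytes in culture exposed to a range of HPN-01 derivative concentrations; SREBP-1 and SREBP-2 mRNA expression then measured to assess inhibition.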

[1] = Cytotoxicity, inhibition of cell growth; assay type: cell-based; conditions: human, read-out: CC50 (cytotoxic concentration that will kill half of the treated cells)
Experimental: FIGS. 10A and 10B. Inhibition of hepatocyte growth by HPN-01.
Huh7 cells and primary human hepatocytes were cultured in the presence of varying concentrations of HPN-01, and the inhibition of cell growth was measured.

[2] = tested on: high fat diet-induced NAFLD/NASH mice; test: High fat diet-induced NAFLD/NASH mice; assay type: in vivo, C57BL/6 mice
Experimental: FIG. 11. Study design of in vivo HPN-01 effects on high fat diet-induced NAFLD/NASH mice.
Eight-week old C57BL/6 mice were divided into a test group and a control group. The control group mice were fed with normal chow diet (NCD) for 24 weeks. The test group was further divided into a preventing group and a treatment group. In the preventing group, mice were fed with high-fat diet (HFD) and simultaneously treated with 25 mg/kg of HPN-01 or vehicle daily for 16 weeks, after which time the mice were euthanized and evaluated for NAFLD/NASH development. In the treatment group, mice were fed with HFD for 12 weeks to stimulate the development of NAFLD/NASH, and then treated with 25 mg/kg of HPN-01 or vehicle daily for additional 12 weeks. The mice were then euthanized and evaluated for the presence of NAFLD/NASH. This study design is illustrated in FIG. 11.
To determine the effect of HPN-01 on various fat-related molecules in the liver of mice from the study in Example 8, liver tissues were isolated and prepared and the levels of hepatic triglyceride and glycogen were measured.
The livers of mice from the study of Example 8 were also analysed for their levels of cholesterol, SREBP-1, and fatty acid synthesis. […] Likewise, SREBP-1 expression in HFD-fed mice with HPN-01 treatment was 0.52±0.06, a reduction of about 48% when compared with HFD-fed mice receiving only vehicle (FIG. 15B).
Plasma cholesterol and triglyceride levels were determined in blood taken from mice in the study described in Example 8.
Liver tissues from mice in the study of Example 8 were analysed for the expression level of inflammatory cytokines.
Liver tissues from mice in the study of Example 8 were analysed for the expression levels of hepatic molecules involved in the formation of fibrotic scarring.
Liver tissues were then analysed to determine the levels of various pro-fibrotic cytokines. […] The expression level of TIMP2, a fibrosis suppressor, was increased in the presence of HPN-01.

[3] = HFD-fed mice with HPN-01 treatment
[4] = HFD-fed mice, 25 mg/kg daily, 25 mg/kg
[5] = HFD-fed mice, preventing group (25 mg/kg daily, 16 weeks)
[6] = HFD-fed mice, treatment group (HFD 12 weeks, then 25 mg/kg daily 12 weeks)

## NC(=O)c1cc(-c2ccc(Cl)cc2)cc(-c2ccc(S(N)(=O)=O)cc2)c1N [HPN-01, 2-amino-3-(p-sulfonamidophenyl)-5-(p-chlorophenyl) benzamide]
Huh7 cells; with oleic acid stimulation (400 μM)
  IC50: 270 nM
Huh7 cells; without oleic acid pre-treatment
  IC50: 460 nM
adiponectin
  IC50: 320 nM
DGAT2
  Folds of inhibition DGAT2 mRNA: 3.77±0.45 fold
LDLR
  Folds of inhibition LDLR mRNA: 3.02±0.11 fold
SREBP-1
  IC50: 1710 nM
[1]; Huh7 cells
  CC50: 54300 nM
[1]; primary human hepatocytes
  CC50: 77200 nM
[2]; HFD-fed mice receiving HPN-01
  plasma cholesterol level: 43.0 ± 15.5 mg/dL
  plasma triglyceride level: 31.2 ± 4.5 mg/dL
[2]; [3]
  hepatic SREBP-1 expression (relative): 0.52±0.06
  hepatic cholesterol level: 3.9±1.1 mg per g tissue
  hepatic fatty acid synthesis: 13.2±2.8 DPMs/mg
[2]; HFD-fed mice, 25 mg/kg daily
  size and color of liver: very similar to the control mice
[2]; HFD-fed mice, 25 mg/kg daily, preventing and treatment groups
  LD deposition and inflammatory infiltration in liver sections (H&E, Oil-red-O): substantially diminished
[2]; [4]
  body weight increase / HFD-triggered obesity: significantly remitted; also recorded: reversed HFD-triggered obesity
  fat deposition / visceral fat accumulation: significantly remitted; also recorded: significantly alleviated visceral fat accumulation
[2]; [5]
  liver glycogen level: 8.4 ± 1.6 µg/mg
  liver triglyceride level: 67.2 ± 28.3 mg/g
[2]; [6]
  liver glycogen level: 13.3 ± 3.5 µg/mg
  liver triglyceride level: 75.5 ± 19.8 mg/g
[2]; HFD-fed mice, vs vehicle only
  decrease of hepatic cholesterol vs vehicle: about 1.92 fold
  decrease of hepatic fatty acid synthesis vs vehicle: about 3.18 fold
  decrease of plasma cholesterol vs vehicle: 2.75 fold
  decrease of plasma triglyceride vs vehicle: 1.87 fold
  reduction of hepatic SREBP-1 expression vs vehicle: about 48%
[2]; liver tissue mRNA, HFD-fed mice
  HFD induction of ITGA2, LOX, TIMP1, IGFBP1, IGFBP2, IGFBP3, IGFBP5, IGFBP6 and FGF-21 in liver: significantly suppressed
[2]; liver tissue, HFD-fed mice
  HFD induction of hepatic expression of ICAM1(CD54), IL-1B, IL-8, MCP-1, THF-α and LIF: substantially abrogated; also recorded: suppressed
  expression level of TIMP2 (fibrosis suppressor) in liver: increased
